Legend:
[1] = Cytotoxicity against CV1 cells transfected with human FXR by MTT method; assay type: cell-based; settings: CV-1
[2] = target: T1, Bile acid receptor (Homo sapiens, UniProt Q96RI1); assay: Antagonist activity against FXR assessed as transactivation of luciferase reporter gene in CV1 cells; assay type: functional, cell-based, CV-1
T1 sequence (Q96RI1 whole entry): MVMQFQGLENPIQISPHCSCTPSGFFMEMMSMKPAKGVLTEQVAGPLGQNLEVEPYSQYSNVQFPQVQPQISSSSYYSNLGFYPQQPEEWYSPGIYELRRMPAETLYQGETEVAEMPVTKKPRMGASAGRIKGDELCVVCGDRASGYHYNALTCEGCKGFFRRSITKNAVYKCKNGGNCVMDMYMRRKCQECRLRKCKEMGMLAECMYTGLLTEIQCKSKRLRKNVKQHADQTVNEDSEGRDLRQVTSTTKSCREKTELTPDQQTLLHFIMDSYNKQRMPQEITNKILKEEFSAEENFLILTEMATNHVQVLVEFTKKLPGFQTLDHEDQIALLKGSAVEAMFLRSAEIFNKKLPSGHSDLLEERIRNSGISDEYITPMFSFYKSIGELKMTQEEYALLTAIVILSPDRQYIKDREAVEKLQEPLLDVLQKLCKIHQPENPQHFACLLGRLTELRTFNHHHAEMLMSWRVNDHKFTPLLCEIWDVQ

| SMILES | IC50 [1] | IC50 [2] |
| --- | --- | --- |
| CC(=O)OC[C@@]12CCC3C(C)(C)CCC[C@]3(C)C1C[C@@H](O)[C@@]1(C)C2CC=C2CO[C@@H](O)[C@@H]21 (stereo not given in full) | 29.2 µM | 25.3 µM |
| CO[C@@H]1OCC2=CCC3[C@]4(C)CCC5C(C)(C)CCC[C@]5(C)C4C[C@@H](O)[C@]3(C)[C@H]21 (stereo not given in full) | 86.9 µM | 24.8 µM |
| CC1(C)CCC[C@@]2(C)C1CC[C@]1(CO)C2C[C@@H](O)[C@@]2(C)C1CC=C1CO[C@@H](O)[C@@H]12 (stereo not given in full) | > 100 µM | 64.5 µM |
| CC(=O)OC[C@@]12CCC3C(C)(C)CCC[C@]3(C)C1C[C@@H](OC(C)=O)[C@@]1(C)C2CC=C2CO[C@@H](O)[C@@H]21 (stereo not given in full) | 32.7 µM | 8.1 µM |
| CC(=O)O[C@@H]1CC2[C@@]3(C)CCCC(C)(C)C3CC[C@@]2(C)C2CC=C3CO[C@@H](O)[C@@H]3[C@]21C (stereo not given in full) | 98.5 µM | 81.1 µM |

— ChEMBL document CHEMBL1137284, “Farnesoid X-activated receptor antagonists from a marine sponge Spongia sp” (Bioorg Med Chem Lett, 2006)
